Laboratory results taken from patent publication US5747482A, “Methods and compositions to inhibit keratinocyte proliferation” (priority 1996, dated 1998).
Read-outs that look alike come from different tables or passages of the source.

Assays:
[1] = distilled deionized water
From the text: Under some conditions, water may also be incorporated into the structure. […] The complex can be recrystallized from ethanol or other solvents to increase purity.

[2] = tested on: keratinocyte cells; assay type: cell-based, human; conditions: below 5×10^-4 M, 24 hours treatment
From the text: (§1) Adult human keratinocytes from pooled donor skin were obtained from commercial sources (Cascade Biologics, Portland, Oreg., U.S.A.) and placed in 150 cm^2 bottom area culture flasks using culture medium 154 supplemented with HKGS (about 1%). At 80% confluency, cells were harvested with trypsin and cryopreserved until required.
The induction of apoptosis is a critical feature in the programmed cell death as it relates to disease conditions such as cancer, psoriasis, etc. where the uncontrolled proliferation of "immortal" cells such as keratinocytes is a causative feature of the disease. This example compares the ability of gallium maltol to induce apoptosis as compared to negative control (no gallium maltol), and positive control (CAM--an agent known to strongly induce apoptosis). The ability for gallium maltol to effect apoptosis was also measured by the inhibitory effect of ATA.
Specifically, keratinocyte cells were grown using medium 154 in 24 well plates seed with 2,500 cells/cm^2 as described above. Cultures were continued for 3 or 6 days when the cells had achieved about 20 or 60% confluence respectively. On these 2 occasions, media were aspirated from groups of 3 or 4 wells and replaced with high Ca^+2 medium either without supplement or with one of the following supplements:
1. Gallium maltol at a final concentration of one of the following: (a) 5×10^-4 M, (b) 1×10^-4 M, (c) 5×10^-5 M, (d) 1×10^-5 M, and (e) 1×10^-6 M;
4. As in (3) plus CAM at 1×10^-5 or 1×10^-6 M; and
5. As in (3) plus gallium maltol at 1×10^-4 or 2.5×10^-4 M;
Culture was renewed for a further 24 hours. At this time, media were removed and discarded, and the cells lysed with 200 μL/well of the solution provided in the Cell Death Detection Kit ELISA Plus (Boehringer Mannheim Biochemicals, Indianapolis, Ind., U.S.A., catalogue number 1774425). Aliquots of the lysate (20 μL) from each of 2 or 3 wells were assayed for nucleosomal enrichment following the kit instructions.

[3] = tested on: Keratinocytes; assay: Comparison of keratinocyte growth inhibition by gallium maltol, gallium nitrate and maltol, Example 3; assay type: cell-based, human; conditions: 1×10^-4 M, 9 days, high Ca^+2 medium; FIG. 3
From the text: as §1
(§2) At the start of the experiments, the required number of vials of keratinocytes was thawed, and the keratinocytes were placed in culture in 24 well plates at about 2,500 cells/cm^2 using the same culture medium as described above. After 24 hours (to allow attachment), the medium was changed to fresh 154 supplemented with HKGS (about 1%) and gallium maltol. Specifically, the fresh medium was prepared by addition of a sufficient amount of a stock solution to provide for six different compositions having a final gallium concentration of 10^-4 M, 10^-5 M, 10^-6 M, 10^-8 M, 10^-10 M, and 10^-12 M. The stock solution was prepared by adding 22.25 mg of gallium maltol to 50 mL of 154 medium and then passing the solution through a 0.2 μm filter and storing at 4° C.
When control cells were about 40% confluent (generally at 4-5 days in culture, all media were removed by aspiration, keratinocyte growth was assayed by crystal violet staining and conversion to cell numbers as described by Wilkinson, et al.^11. Specifically, cell layers rinsed in PBS, which was also aspirated, and 4 drops of crystal violet solution added to each well. The crystal violet solution was prepared by dissolving crystal violet (Fisher Scientific) in PBS:formaldehyde:ethanol (67:3:30%) to give a 0.5 w/v solution. A blank 24-well plate was treated similarly.
Keratinocytes were cultured in 24-well plates for 9 days in the manner described above in Example 2. […]
The cells were then cultured and subsequently evaluated for inhibition of keratinocyte proliferation in the manner described above.

[4] = tested on: Adult human keratinocytes; assay: Keratinocyte growth inhibition (crystal violet staining; confirmatory hexosaminidase activity), Example 2; assay type: cell-based
From the text: as §2, with “Adult human keratinocytes from pooled donor skin were obtained from commercial sources (Cascade Biologics, Portland, Oreg., U.S.A.) and placed in 150 cm^2 bottom area culture flasks using culture medium 154 supplemented with HKGS (about 1%). At 80% confluency, cells were harvested with trypsin and cryopreserved until required. At” for “At”, “C. Media were replaced every 2 or 3 days. […]” for “C.”

## Cc1occc(=O)c1[O-].Cc1occc(=O)c1[O-].Cc1occc(=O)c1[O-].[Ga+3] [gallium maltol, neutral 3:1 gallium complex of maltol]
[1]
  solubility: about 24 millimolar
[2]; cultured 3 days prior, FIG. 5
  increase in apoptosis at lower concentrations: failed to provide such a significant increase in apoptosis
[2]; cultured 6 days prior, FIG. 6
  increase in apoptosis at lower concentrations: smaller increases in apoptosis at lower concentrations
[3]
  inhibition of keratinocyte proliferation: about 94%
[4]; 10^-4 M, FIG. 1 (crystal violet) and FIG. 2 (hexosaminidase), 100 µM
  keratinocyte growth reduced as compared to control: 60 to 90%
[4]; concentrations below 10^-4 M, FIG. 2 (hexosaminidase)
  effect on keratinocyte growth at lower concentrations: may, in fact, slightly promote keratinocyte growth
